Patent publication US10738035B2, “Hepatitis B antiviral agents” (Enanta Pharmaceuticals, Inc., priority 2015, dated 2020)

Key:
[1] = Compound toxicity, ATPLite (CC50); details: human, HepAD38 cells
Description: (§1) Briefly, cells are passaged upon attaining confluency in DMEM/F12 media in the presence of 10% FBS, Penn/Strep, 250 μg/mL G418, and 1 μg/ml tetracycline. Novel compounds are screened by first washing cells three times with PBS to remove tetracycline, and plating in 96 well plates at 35,000 cells/well. Compounds dissolved in DMSO are then diluted 1:200 into wells containing cells. Five days after compound addition, material is harvested for analysis.
Compound toxicity is evaluated by seeding cells at 15,000 cells/well and treating with compound as described above.

[2] = test system: hepatitis B virus (HBV); assay: HepAD38 antiviral assay (viral product accumulation, EC50); details: HePAD38, 120 h, read-out: HepAD38 EC50
Description: as §1
On harvest day, virion DNA is obtained by lysing with Sidestep Lysis and Stabilization Buffer and then quantified via quantitative real time PCR. Commercially available ELISA kits are used to quantitate the viral proteins HBsAg (Alpco) or HbeAg (US Biological) by following the manufacturer's recommended protocol after diluting samples to match the linear range of their respective assays.

Compound: O=S(=O)(c1c(Cl)ccc2c(Nc3cc(F)c(F)c(F)c3)n[nH]c12)N1CCC(O)CC1 [Example 1]
- CC50 at 3 days [1]: > 30 µM
- EC50 [2]: > 10 µM

Compound: Cn1nc(NC(=O)Nc2cc(F)c(F)c(F)c2)cc1S(=O)(=O)N1CCC(O)CC1 [Example 2]
- CC50 at 3 days [1]: > 30 µM
- EC50 [2]: 1 to 10 µM

Compound: Cn1nc(NC(=O)N2CCC(O)CC2)cc1C(=O)Nc1cc(F)c(F)c(F)c1 [Example 3]
- CC50 at 3 days [1]: > 30 µM
- EC50 [2]: < 1 µM

Compound: O=S(=O)(c1cc2oc(Nc3cc(F)c(F)c(F)c3)nc2cc1Cl)N1CCC(O)CC1 [Example 4]
- CC50 at 3 days [1]: < 10 µM
- EC50 [2]: 1 to 10 µM

Compound: Cn1nc(NS(=O)(=O)C2CCC(O)CC2)cc1C(=O)Nc1cc(F)c(F)c(F)c1 (centres unmarked) [Example 5]
- CC50 at 3 days [1]: > 30 µM
- EC50 [2]: < 1 µM

Compound: Cn1c(NC(=O)N2CCC(O)CC2)cnc1C(=O)Nc1cc(F)c(F)c(F)c1 [Example 6]
- CC50 at 3 days [1]: > 10 µM
- EC50 [2]: > 10 µM

Compound: O=C(Nc1cc(F)c(F)c(F)c1)c1ccc(Cl)c(NC(=O)N2CCC(O)CC2)c1 [Example 7]
- CC50 at 3 days [1]: > 30 µM
- EC50 [2]: 1 to 10 µM

Compound: Cn1nc(NC(=O)N2CCC(O)CC2)cc1-c1ncc(-c2cc(F)c(F)c(F)c2)[nH]1 [Example 8]
- CC50 at 3 days [1]: > 10 µM
- EC50 [2]: > 10 µM

Compound: O=C(Nc1cc(F)c(F)c(F)c1)c1cc(NC(=O)N2CCC(O)CC2)no1 [Example 9]
- CC50 at 3 days [1]: < 10 µM
- EC50 [2]: > 10 µM

Compound: Cn1cc(NC(=O)N2CCC(O)CC2)nc1C(=O)Nc1cc(F)c(F)c(F)c1 [Example 10]
- CC50 at 3 days [1]: > 30 µM
- EC50 [2]: > 10 µM

Compound: Cn1nc(NC(=O)N2CCC(O)CC2)c(Cl)c1C(=O)Nc1cc(F)c(F)c(F)c1 [Example 11]
- CC50 at 3 days [1]: > 30 µM
- EC50 [2]: 1 to 10 µM

Compound: Cn1nc(NS(=O)(=O)N2CCC(OCc3ccccc3)CC2)cc1C(=O)Nc1cc(F)c(F)c(F)c1 [Example 12]
- CC50 at 3 days [1]: 10 to 30 µM
- EC50 [2]: 1 to 10 µM

Compound: Cn1nc(C(=O)Nc2cc(F)c(F)c(F)c2)cc1NC(=O)N1CCC(O)CC1 [Example 13]
- CC50 at 3 days [1]: > 10 µM
- EC50 [2]: > 10 µM

Compound: Cn1nc(NC(=O)C2CCC(O)CC2)cc1C(=O)Nc1cc(F)c(F)c(F)c1 (centres unmarked) [Example 14]
- CC50 at 3 days [1]: > 30 µM
- EC50 [2]: 1 to 10 µM

Compound: Cn1nc(NC(=O)OCCO)cc1C(=O)Nc1cc(F)c(F)c(F)c1 [Example 15]
- CC50 at 3 days [1]: > 30 µM
- EC50 [2]: < 1 µM

Compound: Cn1nc(NC(=O)N2CCCCC2)cc1C(=O)Nc1cc(F)c(F)c(F)c1 [Example 16]
- CC50 at 3 days [1]: < 10 µM
- EC50 [2]: 1 to 10 µM

Compound: Cn1nc(NC(=O)N2CCC(F)CC2)cc1C(=O)Nc1cc(F)c(F)c(F)c1 [Example 17]
- CC50 at 3 days [1]: < 10 µM
- EC50 [2]: 1 to 10 µM

Compound: Cn1nc(NC(=O)N2CCC(F)(F)CC2)cc1C(=O)Nc1cc(F)c(F)c(F)c1 [Example 18]
- CC50 at 3 days [1]: > 30 µM
- EC50 [2]: 1 to 10 µM

Compound: Cn1nc(NC(=O)N2CCC(C)(O)CC2)cc1C(=O)Nc1cc(F)c(F)c(F)c1 [Example 19]
- CC50 at 3 days [1]: > 30 µM
- EC50 [2]: 1 to 10 µM

Compound: Cn1nc(NC(=O)N2CCOCC2)cc1C(=O)Nc1cc(F)c(F)c(F)c1 [Example 20]
- CC50 at 3 days [1]: > 30 µM
- EC50 [2]: 1 to 10 µM

Compound: CN(CCO)C(=O)Nc1cc(C(=O)Nc2cc(F)c(F)c(F)c2)n(C)n1 [Example 21]
- CC50 at 3 days [1]: > 30 µM
- EC50 [2]: 1 to 10 µM

Compound: CN(C(=O)Nc1cc(C(=O)Nc2cc(F)c(F)c(F)c2)n(C)n1)C1CC1 [Example 22]
- CC50 at 3 days [1]: > 30 µM
- EC50 [2]: > 10 µM

Compound: CN(Cc1ccccc1)C(=O)Nc1cc(C(=O)Nc2cc(F)c(F)c(F)c2)n(C)n1 [Example 23]
- CC50 at 3 days [1]: < 10 µM
- EC50 [2]: 1 to 10 µM

Compound: COCCNC(=O)Nc1cc(C(=O)Nc2cc(F)c(F)c(F)c2)n(C)n1 [Example 24]
- CC50 at 3 days [1]: > 30 µM
- EC50 [2]: 1 to 10 µM

Compound: CN(C)CCNC(=O)Nc1cc(C(=O)Nc2cc(F)c(F)c(F)c2)n(C)n1 [Example 25]
- CC50 at 3 days [1]: > 30 µM
- EC50 [2]: > 10 µM

Compound: Cn1nc(NC(=O)NCC2(C)CC2)cc1C(=O)Nc1cc(F)c(F)c(F)c1 [Example 26]
- CC50 at 3 days [1]: > 30 µM
- EC50 [2]: < 1 µM

Compound: Cn1nc(NC(=O)N(CCO)CCO)cc1C(=O)Nc1cc(F)c(F)c(F)c1 [Example 27]
- CC50 at 3 days [1]: > 30 µM
- EC50 [2]: > 10 µM

Compound: CN(C(=O)Nc1cc(C(=O)Nc2cc(F)c(F)c(F)c2)n(C)n1)C1CCCCC1 [Example 28]
- CC50 at 3 days [1]: > 30 µM
- EC50 [2]: < 1 µM

Compound: Cn1nc(NC(=O)N2CCC(O)C2)cc1C(=O)Nc1cc(F)c(F)c(F)c1 (centres unmarked) [Example 29]
- CC50 at 3 days [1]: < 10 µM
- EC50 [2]: 1 to 10 µM

Compound: CCCN(C)C(=O)Nc1cc(C(=O)Nc2cc(F)c(F)c(F)c2)n(C)n1 [Example 30]
- CC50 at 3 days [1]: > 30 µM
- EC50 [2]: < 1 µM

Compound: CCCCNC(=O)Nc1cc(C(=O)Nc2cc(F)c(F)c(F)c2)n(C)n1 [Example 31]
- CC50 at 3 days [1]: > 30 µM
- EC50 [2]: 1 to 10 µM

Compound: Cn1nc(NC(=O)NCCO)cc1C(=O)Nc1cc(F)c(F)c(F)c1 [Example 32]
- CC50 at 3 days [1]: 10 to 30 µM
- EC50 [2]: 1 to 10 µM

Compound: C=CCn1nc(NC(=O)N2CCC(O)CC2)cc1C(=O)Nc1cc(F)c(F)c(F)c1 [Example 33]
- CC50 at 3 days [1]: > 30 µM
- EC50 [2]: 1 to 10 µM

Compound: Cn1nc(NC(=O)N2CCC(O)CC2)cc1C(=O)Nc1ccc(F)cc1 [Example 34]
- CC50 at 3 days [1]: > 30 µM
- EC50 [2]: 1 to 10 µM

Compound: Cn1nc(NC(=O)N2CCC(O)CC2)cc1C(=O)Nc1ccc(O)c(F)c1 [Example 35]
- CC50 at 3 days [1]: > 30 µM
- EC50 [2]: > 10 µM

Compound: Cn1nc(NC(=O)N2CCC(O)CC2)cc1C(=O)Nc1cc(F)c(Cl)c(F)c1 [Example 36]
- CC50 at 3 days [1]: > 30 µM
- EC50 [2]: > 10 µM

Compound: Cn1nc(NC(=O)N2CCC(O)CC2)cc1C(=O)Nc1cccnc1 [Example 37]
- CC50 at 3 days [1]: > 30 µM
- EC50 [2]: > 10 µM

Compound: Cn1nc(NC(=O)N2CC(O)C2)cc1C(=O)Nc1cc(F)c(F)c(F)c1 [Example 38]
- CC50 at 3 days [1]: 10 to 30 µM
- EC50 [2]: < 1 µM

Compound: CN(CCCO)C(=O)Nc1cc(C(=O)Nc2cc(F)c(F)c(F)c2)n(C)n1 [Example 39]
- CC50 at 3 days [1]: > 30 µM
- EC50 [2]: 1 to 10 µM

Compound: CCN(C)C(=O)Nc1cc(C(=O)Nc2cc(F)c(F)c(F)c2)n(C)n1 [Example 40]
- CC50 at 3 days [1]: < 10 µM
- EC50 [2]: 1 to 10 µM

Compound: CC(C)CN(C)C(=O)Nc1cc(C(=O)Nc2cc(F)c(F)c(F)c2)n(C)n1 [Example 41]
- CC50 at 3 days [1]: > 30 µM
- EC50 [2]: < 1 µM

Compound: Cn1nc(NC(=O)NCCS(C)(=O)=O)cc1C(=O)Nc1cc(F)c(F)c(F)c1 [Example 42]
- CC50 at 3 days [1]: > 30 µM
- EC50 [2]: 1 to 10 µM

Compound: Cn1nc(NC(=O)N2CCC(O)CC2)cc1C(=O)Nc1cccc(F)c1 [Example 43]
- CC50 at 3 days [1]: > 30 µM
- EC50 [2]: 1 to 10 µM

Compound: Cn1nc(NC(=O)N2CCC(O)CC2)cc1C(=O)Nc1ccc(F)c(F)c1 [Example 44]
- CC50 at 3 days [1]: > 30 µM
- EC50 [2]: 1 to 10 µM

Compound: Cn1nc(NC(=O)N2CCC(O)CC2)cc1C(=O)Nc1cccc(F)c1F [Example 45]
- CC50 at 3 days [1]: > 30 µM
- EC50 [2]: 1 to 10 µM

Compound: Cn1nc(NC(=O)N2CCC(O)CC2)cc1C(=O)Nc1cc(F)cc(F)c1 [Example 46]
- CC50 at 3 days [1]: 10 to 30 µM
- EC50 [2]: > 10 µM

Compound: Cn1nc(NC(=O)N2CCC(O)CC2)cc1C(=O)Nc1ccc(F)cc1F [Example 47]
- CC50 at 3 days [1]: > 30 µM
- EC50 [2]: > 10 µM

Compound: Cn1nc(NC(=O)N2CCC(O)CC2)cc1C(=O)Nc1ccc(F)c(Cl)c1 [Example 48]
- CC50 at 3 days [1]: < 10 µM
- EC50 [2]: 1 to 10 µM

Compound: Cn1nc(NC(=O)N2CCC(O)CC2)cc1C(=O)Nc1ccc(Cl)c(F)c1 [Example 49]
- CC50 at 3 days [1]: > 30 µM
- EC50 [2]: 1 to 10 µM

Compound: Cn1nc(NC(=O)N2CCC(O)CC2)cc1C(=O)Nc1ccc(F)c(O)c1 [Example 50]
- CC50 at 3 days [1]: > 30 µM
- EC50 [2]: > 10 µM

Compound: Cn1nc(NC(=O)N2CCC(O)CC2)cc1C(=O)Nc1ccccc1 [Example 51]
- CC50 at 3 days [1]: > 30 µM
- EC50 [2]: > 10 µM

Compound: Cn1nc(NC(=O)N2CCC(O)CC2)cc1C(=O)Nc1ccc(F)c(C(F)(F)F)c1 [Example 52]
- CC50 at 3 days [1]: > 30 µM
- EC50 [2]: 1 to 10 µM

Compound: Cn1nc(NC(=O)N2CCC(O)CC2)cc1C(=O)Nc1ccc(F)c(C#N)c1 [Example 53]
- CC50 at 3 days [1]: > 30 µM
- EC50 [2]: 1 to 10 µM

Compound: Cc1cc(NC(=O)c2cc(NC(=O)N3CCC(O)CC3)nn2C)ccc1F [Example 54]
- CC50 at 3 days [1]: < 10 µM
- EC50 [2]: < 1 µM

Compound: COc1cc(NC(=O)c2cc(NC(=O)N3CCC(O)CC3)nn2C)ccc1F [Example 55]
- CC50 at 3 days [1]: > 30 µM
- EC50 [2]: > 10 µM

Compound: Cn1nc(NC(=O)N2CCC(O)CC2)cc1C(=O)Nc1ccncc1 [Example 56]
- CC50 at 3 days [1]: > 30 µM
- EC50 [2]: > 10 µM

Compound: CC(C)N(C)C(=O)Nc1cc(C(=O)Nc2cc(F)c(F)c(F)c2)n(C)n1 [Example 57]
- CC50 at 3 days [1]: < 10 µM
- EC50 [2]: 1 to 10 µM

Compound: CN(C(=O)N1CCC(O)CC1)c1cc(C(=O)Nc2cc(F)c(F)c(F)c2)n(C)n1 [Example 58]
- CC50 at 3 days [1]: > 30 µM
- EC50 [2]: > 10 µM
